The values below come from publication PMC6966494, “Surface Plasmon Resonance as a Tool for Ligand Binding Investigation of Engineered GPR17 Receptor, a G Protein Coupled Receptor Involved in Myelination” (Frontiers in Chemistry, 2020).

For one test, the system named is OPC-DRG co-cultures. In words: Myelination assay in OPC-DRG co-cultures (Myelination Index). It counts as cell-based, rat OPCs, mouse DRG neurons. As to conditions: day 4 to day 15. The protocol:
(§1) The pharmacological profile of Asinex 1 was assessed in three different in vitro assays of increasing complexity in oligodendrocyte precursor cells (OPCs) natively expressing GPR17. Primary rat OPCs were cultured either alone or in the presence of mouse DRG neurons, according to a well-established protocol, previously described in Fumagalli et al. ([2015]). The endogenous GPR17 ligands UDP and LTD4 were selected as reference ligands. For more details on culture preparation and analysis, see Supplementary Information.
GPR17 ligands were tested both in primary OPCs culture and in OPC/DRG co-cultures to assess their pro-differentiation and pro-myelination effect, respectively. According to the type of culture, a specific protocol of treatment was set up. For primary OPCs, cells were seeded on 13 mm poly-D,L-ornithine-coated coverslips (2 × 10^4 cells/well) and maintained for 2 days in Neurobasal medium supplemented with B27 and proliferative factors (PDGF-BB and bFGF). Afterwards, OPC differentiation was induced by removing proliferative factors and by adding T3 and pharmacological treatments with Asinex 1 (1 or 10 nM) and LTD4 (200 nM), selected as reference compound, were performed the following day. After 48 h, cells were fixed for immunocytochemistry (ICC). For OPC/DRG co-cultures, Asinex 1 (10 nM) and UDP (100 μM) were added to cultures at day 4. […]

The subject of a further test is primary OPCs. In words: OPC differentiation assay (MBP+ cells, immunocytochemistry). It counts as cell-based, rat. As to conditions: 48 h. On the procedure:
as §1
GPR17 ligands were tested both in primary OPCs culture and in OPC/DRG co-cultures to assess their pro-differentiation and pro-myelination effect, respectively. According to the type of culture, a specific protocol of treatment was set up. For primary OPCs, cells were seeded on 13 mm poly-D,L-ornithine-coated coverslips (2 × 10^4 cells/well) and maintained for 2 days in Neurobasal medium supplemented with B27 and proliferative factors (PDGF-BB and bFGF). Afterwards, OPC differentiation was induced by removing proliferative factors and by adding T3 and pharmacological treatments with Asinex 1 (1 or 10 nM) and LTD4 (200 nM), selected as reference compound, were performed the following day. After 48 h, cells were fixed for immunocytochemistry (ICC). For OPC/DRG co-cultures, Asinex 1 (10 nM) and UDP (100 μM) were added to cultures at day 4. The pharmacological treatment was repeated every 2 days up to day 15, when cells were fixed for ICC analysis. For more details, see Supplementary Information.
Oligodendrocyte precursor cell cultures
Primary oligodendrocyte precursor cells (OPCs) were isolated from mixed glial cultures prepared from postnatal day 2 Sprague-Dawley rat cortex by shaking cells on an orbital shaker at 200 rpm, as previously described (Fumagalli et al., 2015). OPCs were then collected and separated from microglia by incubation for 1 h in an uncoated Petri dish. […]

The target in test [1] is T1, GPR17 (Rattus norvegicus, UniProt Q09QM4).
T1 construct: oligodendrocyte precursor cells (OPCs) natively expressing GPR17; endogenous in cells; host or cells: primary OPCs from postnatal day 2 Sprague-Dawley rat cortex
T1 sequence (Q09QM4 whole entry): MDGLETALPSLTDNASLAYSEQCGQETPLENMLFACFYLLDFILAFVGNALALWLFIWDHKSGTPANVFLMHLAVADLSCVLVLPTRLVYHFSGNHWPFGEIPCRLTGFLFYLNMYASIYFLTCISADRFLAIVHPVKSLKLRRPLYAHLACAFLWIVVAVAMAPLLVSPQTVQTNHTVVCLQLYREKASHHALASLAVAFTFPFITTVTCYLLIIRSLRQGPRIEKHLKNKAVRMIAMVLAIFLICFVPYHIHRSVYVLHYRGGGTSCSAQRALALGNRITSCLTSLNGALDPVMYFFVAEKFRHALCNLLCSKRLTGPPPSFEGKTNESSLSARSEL
In words: cAMP assay: inhibition of forskolin-stimulated adenylyl cyclase activity in primary OPCs. It counts as cell-based. The protocol: as §1
In order to determine the intracellular cAMP levels, primary purified OPCs were treated with Asinex 1 after 6 days in culture, when GPR17 expression reaches the maximum peak. A competitive protein binding method was used following the procedure previously described (Fumagalli et al., [2015]). Briefly, culture medium was removed, and cells were incubated at 37°C for 15 min with 400 μL of Neurobasal medium in the presence of the phosphodiesterase inhibitor Ro20-1724 (20 μM). The concentration-response curve of tested ligands was assessed by measuring their ability to inhibit cAMP accumulation stimulated by 10 μM forskolin. Asinex 1 was added to cells for 15 min at graded concentration (0.1–50 nM). […] Reactions were terminated by medium removal and addition of 200 μL of 0.4 N HCl. After 30 min, lysates were neutralized with 50 μL of 4 N KOH, and the suspension was centrifuged at 800× g for 5 min. For determination of cAMP, cAMP-binding protein isolated from bovine adrenal glands was incubated with [^3H]cAMP (2 nM), 50 μL of cell lysate or cAMP standard (0–16 pmol) at 4°C for 150 min, in a total volume of 300 μL. Bound radioactivity was separated by rapid filtration through GF/C glass fiber filters and washed twice with 4 mL of 50 mM Tris-HCl, pH 7.4. Radioactivity was measured by liquid scintillation spectrometry.
On the technique in general: Changes in cAMP serve as a functional read-out for many G protein-coupled receptors.

In test [2] the test system is GPR17. On the set-up: method as in earlier work. As to conditions: literature functional assay, ref Abbracchio et al., 2006, Ciana et al., Eberini et al., 2011; cited from earlier work.

As for `O=c1ccn([C@@H]2O[C@H](COP(=O)(O)OP(=O)(O)O)[C@@H](O)[C@H]2O)c(=O)[nH]1` [UDP], the “Myelination Index (control 100%)” value in the test on OPC-DRG co-cultures (100 μM) turned out to be 193.9 ± 32.31%.
Take `CCCCC/C=C\C\C=C/C=C/C=C/[C@@H](SC[C@H](N)C(=O)NCC(=O)O)[C@@H](O)CCCC(=O)O` [LTD4]: in the test with primary OPCs (200 nM), the “percentage of MBP+ cells (control set to 100%)” value came to 171.0 ± 21.70%.
For orientation: EC50 means the concentration giving half of the maximal effect. Regarding `COc1ccc(-n2c(SC(C)C(=O)Nc3ccccc3)nnc2-c2ccccc2OC)cc1` (stereo not drawn) [Asinex 1, 2-[[5-(2-methoxyphenyl)-4-(4-methoxyphenyl)-4H-1,2,4-triazol-3-yl]thio]-N-phenyl-propanamide], the “percentage of MBP+ cells (control set to 100%)” value in the test on primary OPCs (1 nM) was 166.5 ± 16.21%; in the test with primary OPCs (10 nM), 158.3 ± 15.77%. For the same compound, on GPR17 [1] (primary OPCs, 10 μM forskolin, 0.1–50 nM, read-out: EC50, inhibition of forskolin-stimulated cAMP formation), the concentration giving a half-maximal response (EC50) amounted to 6.5 ± 0.8 nM. In addition, at GPR17 [1] (primary rat OPCs, nucleotide binding site), the “pharmacological profile at GPR17” value is “full agonist”. In addition, the “Myelination Index (control 100%)” value with OPC-DRG co-cultures (10 nM) is listed as 240.3 ± 64.43%.
For orientation: IC50 means the point on the concentration scale where inhibition reaches its midpoint. With `CSCCNc1nc(SCCC(F)(F)F)nc2c1ncn2[C@@H]1O[C@H](COP(=O)(O)OP(=O)(O)C(Cl)(Cl)P(=O)(O)O)[C@@H](O)[C@H]1O` [Cangrelor], the “ratio between Cangrelor and Asinex 1 affinities” value with GPR17 [2] was 7. Moreover, on GPR17 [1] (primary OPCs, constant ASN 1 concentration of 10 nM, read-out: IC50, antagonism of ASN 1-mediated inhibition of forskolin-stimulated adenylyl cyclase activity), the IC50 is 10.2 ± 0.8 nM.
